Reference: US9445998B2, “Pharmaceutical dosage forms comprising a low-solubility drug and a polymer” (Bend Research, Inc., priority 2004, dated 2016)
Read-outs that look alike come from different tables or passages of the source.

Assays:
[1] = assay type: physicochemical; details: not told, 100 μgA/mL, pH 6.5
Experimental: An Accurel® PP 1E microporous polypropylene membrane was obtained from Membrana GmbH (Wuppertal, Germany). The membrane was washed in isopropyl alcohol and rinsed in methanol in a sonicating bath for 1 minute at ambient temperature, and then allowed to air dry at ambient temperature. The feed side of the membrane was then plasma-treated to render it hydrophilic by placing a sample of the membrane in a plasma chamber. The atmosphere of the plasma chamber was saturated with water vapor at a pressure of 550 mtorr. A plasma was then generated using radio frequency (RF) power inductively coupled into the chamber via annular electrodes at a power setting of 50 watts for 45 seconds. The contact angle of a drop of water placed on the surface of the plasma-treated membrane was less than about 40°. The contact angle of a drop of water placed on the permeate side of the same membrane was greater than about 110°.
A permeate reservoir was formed by gluing a sample of the plasma-treated membrane to a glass tube having an inside diameter of about 1 inch (2.54 cm) using an epoxy-based glue (LOCTITE® E-30CL HYSOL® from Henkel Loctite Corp, Rocky Hill, Conn.). The feed-side of the membrane was oriented so that it was on the outside of the permeate reservoir, while the permeate-side of the membrane was oriented so that it was on the inside of the reservoir. The effective membrane area of the membrane on the permeate reservoir was about 4.9 cm^2. The permeate reservoir was placed into a glass feed reservoir. The feed reservoir was equipped with a magnetic stir bar and the reservoir was placed on a stir plate and the stir rate was set to 100 rpm during the test. The apparatus was placed into a chamber maintained at 37° C. for the duration of the test. Further details of the test apparatus and protocols are presented in co-pending U.S. Patent Application Ser. No. 60/557,897, entitled “Method and Device for Evaluation of Pharmaceutical Compositions,” filed Mar. 30, 2004, incorporated herein by reference.
To form the feed solution, a 1.429 mg (0.5 mgA) sample of CC-1 was weighed into a feed reservoir. (As used herein, “mgA” is milligrams of active drug, reported as the free base, non-salt form, non-hydrate drug molecule.) To this was added 5 mL of the MFD solution previously described, consisting of PBS solution containing 7.3 mM sodium taurocholic acid and 1.4 mM of 1-palmitoyl-2-oleyl-sn-glycero-3-phosphocholine (0.5% NaTC/POPC). […] The feed solution was mixed using a vortex mixer for 1 minute. Before the membrane contacted the feed solution, 5 mL of 60 wt % decanol in decane was placed into the permeate reservoir. Time zero in the test was when the membrane was placed in contact with the feed solution. A […] aliquot of the permeate solution was collected at the times indicated. Samples were then diluted in […] IPA and analyzed using HPLC.
The maximum flux of drug across the membrane (in units of μgA/cm^2-min) was determined by performing a least-squares fit to the data in Table 4 from 0 to 60 minutes to obtain the slope (CC-1: 0.26 μgA/mL-min; Control 1A: 0.13 μgA/mL-min; Control 1B: 0.07 μgA/mL-min), multiplying the slope by the permeate volume (5 mL), and dividing by the membrane area (4.9 cm^2).

[2] = Dissolution in phosphate buffered saline at pH 6.5 (ziprasidone); assay type: physicochemical; details: PBS pH 6.5, at equilibrium; drug crystallizes as the free base form
Text: (§1) An example of a drug having a crystalline highly soluble salt form is ziprasidone. Ziprasidone hydrochloride monohydrate has a solubility of about 10 μgA/mL (expressed as the free base) in water, whereas the free base form has a solubility of less than about 0.2 μgA/mL under the same conditions. Thus, crystalline ziprasidone hydrochloride is a solubility-improved form relative to the crystalline free base form of ziprasidone.
An appropriate MFD solution is the same PBS solution wherein there is also present 7.3 mM sodium taurocholic acid and 1.4 mM of 1-palmitoyl-2-oleyl-sn-glycero-3-phosphocholine.

[3] = Microcentrifuge dissolution test in MFD solution; assay type: physicochemical; design: AUC: concentration or dose not given beside the values; details: for Dissolved Ziprasidone Concentration / AUC: MFD solution pH 6.5, 37° C.; for Dissolved Ziprasidone Concentration: 200 μgA/mL if all dissolved
Experimental: A microcentrifuge dissolution test was performed to verify that ziprasidone hydrochloride monohydrate is a solubility-improved form of ziprasidone. For this test, a sufficient amount of ziprasidone hydrochloride monohydrate was added to a microcentrifuge test tube so that the concentration of ziprasidone would have been 200 μgA/mL, if all of the ziprasidone had dissolved. The tests were run in duplicate. The tubes were placed in a 37° C. temperature-controlled chamber, and 1.8 mL MFD solution at pH 6.5 and 290 mOsm/kg was added to each respective tube. The samples were quickly mixed using a vortex mixer for about 60 seconds. The samples were centrifuged at 13,000 G at 37° C. for 1 minute prior to collecting a sample. The resulting supernatant solution was then sampled and diluted 1:5 (by volume) with methanol. Samples were analyzed by high-performance liquid chromatography (HPLC) at a UV absorbance of 315 nm using a Zorbax RxC8 Reliance column and a mobile phase consisting of 55% (50 mM potassium dihydrogen phosphate, pH 6.5)/45% acetonitrile. Drug concentration was calculated by comparing UV absorbance of samples to the absorbance of drug standards. The contents of each tube were mixed on the vortex mixer and allowed to stand undisturbed at 37° C. until the next sample was taken. Samples were collected at 4, 10, 20, 40, 90, and 1200 minutes following administration to the MFD solution.
A similar test was performed with the crystalline ziprasidone free base as a control, and a sufficient amount of material was added so that the concentration of compound would have been 200 μgA/mL, if all of the ziprasidone had dissolved.
The concentrations of ziprasidone obtained in these tests were used to determine the maximum dissolved concentration of ziprasidone (“MDC90”) and the area under the concentration-versus-time curve (“AUC90”) during the initial ninety minutes.

[4] = Solubility in water; assay type: physicochemical; details: expressed as the free base, listed as free base form
Text: as §1

O=C1Cc2cc(CCN3CCN(c4nsc5ccccc45)CC3)c(Cl)cc2N1 [Ziprasidone Free Base, ziprasidone]
Ziprasidone Concentration in Permeate ([1]; 0 min): 0.0 μgA/mL
Maximum Flux of Ziprasidone [1]: 0.07 μgA/cm^2-min
Ziprasidone Concentration in Permeate ([1]; 20 min): 0.0 μgA/mL
Ziprasidone Concentration in Permeate ([1]; 40 min): 3.3 μgA/mL
Ziprasidone Concentration in Permeate ([1]; 60 min): 3.4 μgA/mL
Ziprasidone Concentration in Permeate ([1]; 90 min): 5.4 μgA/mL
Ziprasidone Concentration in Permeate ([1]; 120 min): 6.8 μgA/mL
Ziprasidone Concentration in Permeate ([1]; 180 min): 9.2 μgA/mL
Ziprasidone Concentration in Permeate ([1]; 245 min): 11.5 μgA/mL
Ziprasidone Concentration in Permeate ([1]; 360 min): 14.7 μgA/mL
equilibrium solubility [2]: about 0.2 μgA/mL
Dissolved Ziprasidone Concentration ([3]; time 4 min): 1 μgA/mL
Dissolved Ziprasidone Concentration ([3]; time 10 min): 1 μgA/mL
Dissolved Ziprasidone Concentration ([3]; time 20 min): 1 μgA/mL
Dissolved Ziprasidone Concentration ([3]; time 40 min): 2 μgA/mL
Dissolved Ziprasidone Concentration ([3]; time 90 min): 1 μgA/mL
Dissolved Ziprasidone Concentration ([3]; time 1200 min): 2 μgA/mL
AUC ([3]; up to time 4 min): 3 min-μgA/mL
AUC ([3]; up to time 10 min): 11 min-μgA/mL
AUC ([3]; up to time 20 min): 23 min-μgA/mL
AUC ([3]; up to time 40 min): 51 min-μgA/mL
AUC ([3]; up to time 90 min): 120 min-μgA/mL
AUC ([3]; up to time 1200 min): 2000 min-μgA/mL
AUC90 ([3]; area under the concentration-versus-time curve during the initial ninety minutes, MFD solution): 120 min·µgA/mL
MDC90 ([3]; maximum dissolved concentration during the initial ninety minutes, MFD solution): 2 µgA/mL
solubility in water [4]: less than 0.2 μgA/mL
